ChEMBL document CHEMBL1136837, “Unified QSAR approach to antimicrobials. 4. Multi-target QSAR modeling and comparative multi-distance study of the giant components of antiviral drug-drug complex networks” (Bioorg Med Chem, 2009)

Tests used:
Human papillomavirus = assay: Antiviral activity against Human papillomavirus; type: functional, organism-based
Vaccinia virus = assay: Antiviral activity against Vaccinia virus; type: functional, organism-based, Orthopoxvirus vaccinia; conditions: Orthopoxvirus vaccinia
Cowpox virus = assay: Antiviral activity against Cowpox virus; type: functional, organism-based
Human alphaherpesvirus 2 = assay: Antiviral activity against Herpes simplex virus 2; type: functional, organism-based; conditions: Human alphaherpesvirus 2
Human alphaherpesvirus 1 = assay: Antiviral activity against Herpes simplex virus 1; type: functional, organism-based; conditions: Human alphaherpesvirus 1
Human alphaherpesvirus 3 = assay: Antiviral activity against Varicella zoster virus; type: functional, organism-based
[1] = system: Human immunodeficiency virus 1; assay: Antiviral activity against HIV1; type: functional, organism-based
[2] = system: Human immunodeficiency virus 2; assay: Antiviral activity against HIV2; type: functional, organism-based
Human betaherpesvirus 5 = assay: Antiviral activity against Human cytomegalovirus; type: functional, organism-based; conditions: Human betaherpesvirus 5
Hepatitis B virus = assay: Antiviral activity against Hepatitis B virus; type: functional, organism-based
Hepatitis C virus = assay: Antiviral activity against Hepatitis C virus; type: functional, organism-based, Hepacivirus hominis; conditions: Hepatitis C virus

Q: `CN(C(=O)c1ccc(-c2ccc(S(=O)(=O)CC(=O)O)cc2)cc1)c1ccccc1` was tested. Which IC50 (Human papillomavirus) did it give?
A: 4800 nM

Q: For `O=S(=O)(O)CS(=O)(=O)c1ccc(-c2ccccc2)cc1`, which IC50 (Human papillomavirus) is on record?
A: 32000 nM

Q: For `O=c1[nH]c(=O)n([C@H]2C[C@H](O)[C@@H](CO)O2)cc1I` [IDOXURIDINE], which IC50 (Vaccinia virus) is on record?
A: 6000 nM

Q: And the IC50 (Cowpox virus)?
A: 2000 nM

Q: `CC(C)(C)C(=O)OCOP(=O)(COCCn1cnc2c(N)ncnc21)OCOC(=O)C(C)(C)C` [ADEFOVIR DIPIVOXIL] was tested. Which IC50 (Vaccinia virus) did it give?
A: 5100 nM

Q: What about the IC50 (Cowpox virus) of the same compound?
A: 13000 nM

Q: How did the IC50 (Human papillomavirus) turn out when `O=[N+]([O-])CS(=O)(=O)c1ccc(-c2ccccc2)cc1` was run?
A: 65000 nM

Q: With `O=C(O)CS(=O)(=O)c1ccc2ccccc2c1` as the compound, how does the IC50 (Human papillomavirus) read?
A: 40000 nM

Q: `C=CCc1c(N)nc(N)n(CCOCP(=O)(O)O)c1=O` was tested. Which IC50 (Vaccinia virus) did it give?
A: 1.2 nM

Q: And the IC50 (Human alphaherpesvirus 2)?
A: 0.77 nM

Q: And the IC50 (Human alphaherpesvirus 1)?
A: 1.2 nM

Q: What about the IC50 (Human alphaherpesvirus 3) of the same compound?
A: 0.15 nM

Q: And the IC50 [1]?
A: 0.3 nM

Q: And the IC50 [2]?
A: 0.3 nM

Q: `O=C(O)CS(=O)(=O)c1ccc(-c2ccc(C(=O)N(Cc3ccccc3)Cc3ccccc3)cc2)cc1` was tested. Which IC50 (Human papillomavirus) did it give?
A: 1100 nM

Q: How did the IC50 (Human papillomavirus) turn out when `C[C@@H](NC(=O)c1cccc(-c2ccc(S(=O)(=O)CC(=O)O)cc2)c1)c1ccccc1` was run?
A: 43 nM

Q: Which IC50 (Vaccinia virus) does the source give for `Nc1nc(N)n(CCOCP(=O)(O)O)c(=O)c1C1CC1` here?
A: 1.2 nM

Q: And the IC50 (Human alphaherpesvirus 2)?
A: 0.12 nM

Q: And the IC50 (Human alphaherpesvirus 1)?
A: 1.2 nM

Q: What about the IC50 (Human betaherpesvirus 5) of the same compound?
A: 0.15 nM

Q: What about the IC50 [1] of the same compound?
A: 0.3 nM

Q: What about the IC50 [2] of the same compound?
A: 0.3 nM

Q: How did the IC50 (Cowpox virus) turn out when `CC(C)OC(=O)C(C)NP(=O)(CO[C@H](C)Cn1cnc2c(N)ncnc21)Oc1ccccc1` (stereo not given in full) was run?
A: 98900 nM

Q: With `Cc1cccc(CNC(=O)c2cccc(-c3ccc(S(=O)(=O)CC(=O)O)cc3)c2)c1` as the compound, how does the IC50 (Human papillomavirus) read?
A: 27 nM

Q: How did the IC50 (Hepatitis B virus) turn out when `Nc1ncnc2c1ccn2[C@H]1C[C@H](OP(=O)(S)OC[C@H]2O[C@@H](n3cnc4c(N)ncnc43)C[C@@H]2O)[C@@H](CO)O1` (stereo not given in full) was run?
A: 300 nM

Q: And the IC50 (Hepatitis C virus)?
A: 1000 nM

Q: `O=C(O)CS(=O)(=O)c1ccc(-c2cccc(CC(=O)Nc3ccccc3)c2)cc1` was tested. Which IC50 (Human papillomavirus) did it give?
A: 110 nM

Q: How did the IC50 (Cowpox virus) turn out when `CCCCCCCCCCCCCCCCOCCCOP(=O)(O)CO[C@H](CO)Cn1ccc(N)nc1=O` [BRINCIDOFOVIR] was run?
A: 600 nM

Q: How did the IC50 (Cowpox virus) turn out when `O=c1[nH]c(=O)n([C@@H]2O[C@H](CO)[C@@H](O)[C@@H]2F)cc1I` [FIALURIDINE] was run?
A: 240 nM

Q: How did the IC50 (Human papillomavirus) turn out when `O=C(O)CS(=O)(=O)c1ccc(-c2ccc(CC(=O)NCc3ccccc3)cc2)cc1` was run?
A: 340 nM

Q: Which IC50 (Vaccinia virus) does the source give for `Nc1nc(N)n(CCOCP(=O)(O)O)c(=O)c1CC(=O)O` here?
A: 1.2 nM

Q: What about the IC50 (Human alphaherpesvirus 2) of the same compound?
A: 1.2 nM

Q: What about the IC50 (Human alphaherpesvirus 1) of the same compound?
A: 1.2 nM

Q: And the IC50 (Human betaherpesvirus 5)?
A: 0.15 nM

Q: What about the IC50 (Human alphaherpesvirus 3) of the same compound?
A: 0.15 nM

Q: What about the IC50 [1] of the same compound?
A: 0.3 nM

Q: What about the IC50 [2] of the same compound?
A: 0.3 nM

Q: `CCOC(=O)C(C)NP1(=O)CO[C@@H](Cn2ccc(N)nc2=O)CO1` (stereo not given in full) was tested. Which IC50 (Vaccinia virus) did it give?
A: 15000 nM

Q: What about the IC50 (Cowpox virus) of the same compound?
A: 26000 nM

Q: `N#CCc1c(N)nc(N)n(CCOCP(=O)(O)O)c1=O` was tested. Which IC50 (Vaccinia virus) did it give?
A: 1.2 nM

Q: And the IC50 (Human alphaherpesvirus 2)?
A: 1.2 nM

Q: And the IC50 (Human alphaherpesvirus 1)?
A: 1.2 nM

Q: And the IC50 (Human betaherpesvirus 5)?
A: 0.15 nM

Q: What about the IC50 (Human alphaherpesvirus 3) of the same compound?
A: 0.084 nM

Q: What about the IC50 [1] of the same compound?
A: 0.3 nM

Q: And the IC50 [2]?
A: 0.3 nM

Q: With `Nc1nc(NC2CC2)c2ncn(CCOCP(=O)(O)O)c2n1` as the compound, how does the IC50 (Cowpox virus) read?
A: 28000 nM

Q: Which IC50 (Vaccinia virus) does the source give for `Nc1nc(N)n(CCOCP(=O)(O)O)c(=O)c1Cc1ccccc1` here?
A: 1.2 nM

Q: What about the IC50 (Human alphaherpesvirus 2) of the same compound?
A: 1.2 nM

Q: And the IC50 (Human alphaherpesvirus 1)?
A: 1.2 nM

Q: And the IC50 (Human betaherpesvirus 5)?
A: 0.15 nM

Q: What about the IC50 (Human alphaherpesvirus 3) of the same compound?
A: 0.15 nM

Q: What about the IC50 [1] of the same compound?
A: 0.3 nM

Q: And the IC50 [2]?
A: 0.3 nM

Q: How did the IC50 [1] turn out when `Cc1cn([C@H]2C[C@H](N=[N+]=[N-])[C@@H](CO)O2)c(=O)[nH]c1=O` [ZIDOVUDINE] was run?
A: 5 nM

Q: And the IC50 [2]?
A: 5 nM

Q: Which IC50 (Hepatitis B virus) does the source give for `Nc1nc2c(ncn2/C=C2/CC2(F)CO)c(=O)[nH]1` (stereo not given) here?
A: 20000 nM

Q: What about the IC50 (Human alphaherpesvirus 3) of the same compound?
A: 79600 nM

Q: What about the IC50 [1] of the same compound?
A: 100000 nM

Q: How did the IC50 (Human papillomavirus) turn out when `CC(C)(C(=O)O)S(=O)(=O)c1ccc(-c2ccccc2)cc1` was run?
A: 80000 nM

Q: `C=CCc1c(N)nc(N)nc1OCCOCP(=O)(O)O` was tested. Which IC50 (Vaccinia virus) did it give?
A: 1.2 nM

Q: And the IC50 (Human alphaherpesvirus 2)?
A: 1.2 nM

Q: And the IC50 (Human alphaherpesvirus 1)?
A: 1.2 nM

Q: And the IC50 (Human betaherpesvirus 5)?
A: 0.15 nM

Q: And the IC50 (Human alphaherpesvirus 3)?
A: 0.15 nM

Q: And the IC50 [1]?
A: 0.3 nM

Q: And the IC50 [2]?
A: 0.79 nM

Q: For `NC1c2[nH]cnc2N=CN1C[C@@H](CO)OCP(=O)(O)O` (stereo not given in full), which IC50 (Cowpox virus) is on record?
A: 330000 nM

Q: `O=C(O)CS(=O)(=O)c1ccc(-c2ccc(C(=O)NCc3ccccc3)cc2)cc1` was tested. Which IC50 (Human papillomavirus) did it give?
A: 510 nM

Q: Which IC50 (Vaccinia virus) does the source give for `Nc1nc(NCC(F)(F)F)c2ncn(CCOCP(=O)(O)O)c2n1` here?
A: 42000 nM

Q: And the IC50 (Cowpox virus)?
A: 270000 nM

Q: For `O=C(N/C(C(=O)N1CCCCC1)=C(/Cl)c1ccccc1)c1ccccc1`, which IC50 (Hepatitis B virus) is on record?
A: 21400 nM

Q: How did the IC50 (Vaccinia virus) turn out when `Nc1nc(N)c(CC(=O)O)c(OCCOCP(=O)(O)O)n1` was run?
A: 1.2 nM

Q: What about the IC50 (Human alphaherpesvirus 2) of the same compound?
A: 1.2 nM

Q: What about the IC50 (Human alphaherpesvirus 1) of the same compound?
A: 1.2 nM

Q: And the IC50 (Human betaherpesvirus 5)?
A: 0.15 nM

Q: What about the IC50 (Human alphaherpesvirus 3) of the same compound?
A: 0.15 nM

Q: And the IC50 [1]?
A: 0.3 nM

Q: And the IC50 [2]?
A: 0.3 nM

Q: Which IC50 (Hepatitis B virus) does the source give for `COc1ccc(Sc2nc(N)nc3c2ncn3CCOCP(=O)(OCC(F)(F)F)OCC(F)(F)F)cc1` [ALAMIFOVIR] here?
A: 30 nM

Q: With `Cc1cccc(CNC(=O)c2cccc(-c3ccc(S(=O)(=O)CC(=O)O)cc3)c2)c1C` as the compound, how does the IC50 (Human papillomavirus) read?
A: 9.2 nM

Q: With `CN(C)c1nc(N)nc2c1ncn2CCOCP(=O)(O)O` as the compound, how does the IC50 (Vaccinia virus) read?
A: 35000 nM

Q: What about the IC50 (Cowpox virus) of the same compound?
A: 53000 nM

Q: Which IC50 (Human papillomavirus) does the source give for `CS(=O)(=O)c1ccc(-c2ccccc2)cc1` here?
A: 80000 nM

Q: Which results are given for `Cc1c(N)nc(N)n(CCOCP(=O)(O)O)c1=O`?
A: IC50 (Vaccinia virus): 1.2 nM; IC50 (Human alphaherpesvirus 2): 0.12 nM; IC50 (Human alphaherpesvirus 1): 1.2 nM; IC50 [1]: 0.3 nM; IC50 [2]: 0.3 nM

Q: Which IC50 (Human papillomavirus) does the source give for `O=C(O)CS(=O)(=O)c1ccc(-c2cccc(C(=O)NCc3cccc4ccccc34)c2)cc1` here?
A: 4.3 nM

Q: What does the source list for `CC(C)OP(=O)(COCCSc1cc(N)nc(N)n1)OC(C)C`?
A: IC50 (Human alphaherpesvirus 2): 1.1 nM; IC50 (Human alphaherpesvirus 1): 1.1 nM; IC50 (Human alphaherpesvirus 3): 0.137 nM; IC50 [2]: 0.143 nM

Q: Which IC50 (Human papillomavirus) does the source give for `NC(=O)CS(=O)(=O)c1ccc(-c2ccccc2)cc1` here?
A: 80000 nM
